Biological target: human PCSK9 (Homo sapiens, UniProt Q8NBP7)
Experiment: PCSK9 ligand binding TR-FRET assay (interference with binding of human PCSK9 to human LDLR)
Conditions: for Max % inhibition: PCSK9 FRET assay, efficacy (Amax), 100% = 1 uM unlabeled human PCSK9, 0% = DMSO; for IC50: TR-FRET, human PCSK9 Alexa Fluor 647 / human LDLR extracellular domain-Europium Kryptate, read-out: PCSK9 FRET Assay IC50
Outline: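 Threefold compound dilutions were pre-incubated 30 min with PCSK9, after which 4 nM Europium Kryptate-tagged human LDLR ectodomain was added for a further 2 h.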

Sequence of human PCSK9 (Q8NBP7 153-692): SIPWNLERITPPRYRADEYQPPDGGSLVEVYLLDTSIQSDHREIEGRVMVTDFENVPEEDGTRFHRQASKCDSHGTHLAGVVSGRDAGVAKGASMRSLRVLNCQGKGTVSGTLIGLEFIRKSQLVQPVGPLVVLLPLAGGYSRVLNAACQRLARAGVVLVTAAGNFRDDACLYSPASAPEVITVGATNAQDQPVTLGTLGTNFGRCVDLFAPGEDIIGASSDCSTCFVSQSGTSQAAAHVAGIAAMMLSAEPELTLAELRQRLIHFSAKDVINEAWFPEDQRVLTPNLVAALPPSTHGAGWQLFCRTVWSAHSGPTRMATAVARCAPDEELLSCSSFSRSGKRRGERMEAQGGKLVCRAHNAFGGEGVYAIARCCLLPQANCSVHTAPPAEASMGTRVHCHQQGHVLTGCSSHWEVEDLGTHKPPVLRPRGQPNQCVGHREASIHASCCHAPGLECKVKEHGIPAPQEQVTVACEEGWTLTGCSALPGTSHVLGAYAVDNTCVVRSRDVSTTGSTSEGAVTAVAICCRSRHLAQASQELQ
Sequence of human PCSK9 (Q8NBP7 31-152 partner limits assumed): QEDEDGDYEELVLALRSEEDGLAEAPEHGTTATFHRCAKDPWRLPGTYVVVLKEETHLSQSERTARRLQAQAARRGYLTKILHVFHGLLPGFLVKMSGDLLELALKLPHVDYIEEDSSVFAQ

| Compound | Max % inhibition [%] | IC50 [nM] |
| --- | --- | --- |
| COCCN(CCOC)C(=O)C[C@H]1C(=O)N[C@@H](COC)C(=O)N(C)[C@@H](Cc2ccc(Cl)cc2)CC(=O)N[C@H]2CCCC[C@@H]2N(C)C(=O)[C@H](Cc2ccccc2)CC(=O)N1Cc1ccc(Cl)cc1Oc1ccc(-c2cnc(CN(C)C)n2C)cc1 [Compound 218, 2-((4S,7S,10S,14R,16aS,20aS)-14-benzyl-11-(4-chloro-2-(4-(2-((dimethylamino)methyl)-1-methyl-1H-imidazol-5-yl)phenoxy)benzyl)-4-(4-chlorobenzyl)-7-(methoxymethyl)-5,16-dimethyl-2,6,9,12,15-pentaoxodocosahydrobenzo[l][1,4,7,11,14]pentaazacyclooctadecin-10-yl)-N ,N-bis(2-methoxyethyl)acetamide] | 105.97 | 1 |
| COC[C@@H]1NC(=O)[C@H](CC(=O)O)N(Cc2ccc(Cl)cc2Oc2ccc(-c3cnc(CN(C)C)n3C)cc2)C(=O)C[C@@H](Cc2ccccc2)C(=O)N(C)[C@H]2CCCC[C@@H]2NC(=O)C[C@H](Cc2ccc(Cl)cc2)N(C)C1=O [Compound 219, 2-((4S,7S,10S,14R,16aS,20aS)-14-benzyl-11-(4-chloro-2-(4-(2-((dimethylamino)methyl)-1-methyl-1H-imidazol-5-yl)phenoxy)benzyl)-4-(4-chlorobenzyl)-7-(methoxymethyl)-5,16-dimethyl-2,6,9,12,15-pentaoxodocosahydrobenzo[l][1,4,7,11,14]pentaazacyclooctadecin-10-yl)acetic acid] | 105.15 | 0.9 |
| COC[C@@H]1NC(=O)[C@H](C)N(Cc2ccc(Cl)cc2Oc2ccc(-c3cnc(CN4CC[C@H](O)C4)n3C)cc2)C(=O)C[C@@H](Cc2ccccc2)C(=O)N(C)[C@@H](C)CNC(=O)C[C@H](Cc2ccc(Cl)cc2)N(C)C1=O [Compound 220, (2S,5S,8S,13S,16R)-16-benzyl-1-(4-chloro-2-(4-(2-(((S)-3-hydroxypyrrolidin-1-yl)methyl)-1-methyl-1H-imidazol-5-yl)phenoxy)benzyl)-8-(4-chlorobenzyl)-5-(methoxymethyl)-2,7,13,14-tetramethyl-1,4,7,11,14-pentaazacyclooctadecane-3,6,10,15,18-pentaone] | 94.82 | 2.1 |
| CNC(=O)C[C@@H]1NC(=O)[C@H](C)N(Cc2ccc(Cl)cc2Oc2ccc(-c3cnc(CN(C)C)n3C)cc2)C(=O)C[C@@H](Cc2ccccc2)C(=O)N(C)[C@@H](C)CNC(=O)C[C@H](Cc2ccc(Cl)cc2)N(C)C1=O [Compound 221, 2-((2S,5S,8S,13S,16R)-16-benzyl-1-(4-chloro-2-(4-(2-((dimethylamino)methyl)-1-methyl-1H-imidazol-5-yl)phenoxy)benzyl)-8-(4-chlorobenzyl)-2,7,13,14-tetramethyl-3,6,10,15,18-pentaoxo-1,4,7,11,14-pentaazacyclooctadecan-5-yl)-N-methylacetamide] | 98.35 | 1.4 |
| CCc1ccc(CN2C(=O)C[C@@H](Cc3ccccc3)C(=O)N(C)[C@H]3CCCC[C@@H]3NC(=O)C[C@H](Cc3ccc(Cl)cc3)N(C)C(=O)[C@H](COC)NC(=O)[C@@H]2C)c(Oc2ccc(-c3cnc(CN4CCCC4)n3C)cc2)c1 [Compound 223, (4S,7S,10S,14R,16aS,20aS)-14-benzyl-4-(4-chlorobenzyl)-11-(4-ethyl-2-(4-(1-methyl-2-(pyrrolidin-1-ylmethyl)-1H-imidazol-5-yl)phenoxy)benzyl)-7-(methoxymethyl)-5,10,16-trimethylhexadecahydrobenzo[l][1,4,7,11,14]pentaazacyclooctadecine-2,6,9,12,15(3H)-pentaone] | 100.16 | 1.8 |
| COC[C@@H]1NC(=O)[C@H](C)N(Cc2ccc(Cl)cc2Oc2ccc(-c3cnc(CN(C)C)n3C)cc2)C(=O)C[C@@H](Cc2ccccc2)C(=O)N(C)[C@@H]2CCOC[C@H]2NC(=O)C[C@H](Cc2ccc(Cl)cc2)N(C)C1=O [Compound 224, (4S,7S,10S,14R,16aR,20aS)-14-benzyl-11-(4-chloro-2-(4-(2-((dimethylamino)methyl)-1-methyl-1H-imidazol-5-yl)phenoxy)benzyl)-4-(4-chlorobenzyl)-7-(methoxymethyl)-5,10,16-trimethyltetradecahydro-1H-pyrano[3,4-l][1,4,7,11,14]pentaazacyclooctadecine-2,6,9,12,15(3H)-pentaone] | 95.15 | 650 |
| COC[C@@H]1NC(=O)[C@H](CCCCN(C)C)N(Cc2ccc(Cl)cc2Oc2ccc(-c3cnc(CN(C)C)n3C)cc2)C(=O)C[C@@H](Cc2ccccc2)C(=O)N(C)[C@@H](C)CNC(=O)C[C@H](Cc2ccc(Cl)cc2)N(C)C1=O [Compound 225, (2S,5S,8S,13S,16R)-16-benzyl-1-(4-chloro-2-(4-(2-((dimethylamino)methyl)-1-methyl-1H-imidazol-5-yl)phenoxy)benzyl)-8-(4-chlorobenzyl)-2-(4-(dimethylamino)butyl)-5-(methoxymethyl)-7,13,14-trimethyl-1,4,7,11,14-pentaazacyclooctadecane-3,6,10,15,18-pentaone] | 98.86 | 8 |
| C[C@H]1C(=O)N[C@@H](COC(=O)C(C)(C)C)C(=O)N(C)[C@@H](Cc2ccc(Cl)cc2)CC(=O)N[C@H]2CCCC[C@@H]2N(C)C(=O)[C@H](Cc2ccccc2)CC(=O)N1Cc1ccc(Cl)cc1Oc1ccc(-c2cnc(CN(C)C)n2C)cc1 [Compound 226, ((4S,7S,10S,14R,16aS,20aS)-14-benzyl-11-(4-chloro-2-(4-(2-((dimethylamino)methyl)-1-methyl-1H-imidazol-5-yl)phenoxy)benzyl)-4-(4-chlorobenzyl)-5,10,16-trimethyl-2,6,9,12,15-pentaoxodocosahydrobenzo[l][1,4,7,11,14]pentaazacyclooctadecin-7-yl)methyl pivalate] | 42.24 | 249 |
| COC[C@@H]1NC(=O)[C@H](C)N(Cc2ccc(Cl)cc2Oc2ccc(-c3cnc(CN(C)C)n3C)cc2)C(=O)CN2C[C@H](CNC(=O)C[C@H](Cc3ccc(Cl)cc3)N(C)C1=O)N(C)C2=O [Compound 227, (5S,8S,11S,16S)-4-(4-chloro-2-(4-(2-((dimethylamino)methyl)-1-methyl-1H-imidazol-5-yl)phenoxy)benzyl)-11-(4-chlorobenzyl)-8-(methoxymethyl)-5,10,17-trimethyl-1,4,7,10,14,17-hexaazabicyclo[14.2.1]nonadecane-3,6,9,13,18-pentaone] | 104.70 | 8.8 |
| COC[C@@H]1NC(=O)C(C)N(Cc2ccc(F)cc2Oc2ccc(-c3cnc(CN(C)C)n3C)cc2)C(=O)C[C@@H](Cc2ccccc2)C(=O)N(C)[C@H]2CCCC[C@@H]2NC(=O)C[C@H](Cc2ccc(Cl)cc2)N(C)C1=O (stereo partly drawn) [Compound 228, (4S,7S,14R,16aS,20aS)-14-benzyl-4-(4-chlorobenzyl)-11-(2-(4-(2-((dimethylamino)methyl)-1-methyl-1H-imidazol-5-yl)phenoxy)-4-fluorobenzyl)-7-(methoxymethyl)-5,10,16-trimethylhexadecahydrobenzo[l][1,4,7,11,14]pentaazacyclooctadecine-2,6,9,12,15(3H)-pentaone] | 93.92 | 8.4 |
| COC[C@@H]1NC(=O)[C@H](C)N(Cc2ccc(Cl)cc2Oc2ccc(-c3cnc(CN4CCCC4)n3C)cc2)C(=O)C[C@@H](Cc2ccccc2F)C(=O)N(C)[C@@H](C)CNC(=O)C[C@H](Cc2ccc(Cl)cc2)N(C)C1=O [Compound 229, (2S,5S,8S,13S,16R)-1-(4-chloro-2-(4-(1-methyl-2-(pyrrolidin-1-ylmethyl)-1H-imidazol-5-yl)phenoxy)benzyl)-8-(4-chlorobenzyl)-16-(2-fluorobenzyl)-5-(methoxymethyl)-2,7,13,14-tetramethyl-1,4,7,11,14-pentaazacyclooctadecane-3,6,10,15,18-pentaone] | 99.91 | 0.6 |
| COC[C@@H]1NC(=O)[C@H](C)N(Cc2c(Cl)cccc2Oc2ccc(-c3cnc(CN(C)C)n3C)cc2)C(=O)C[C@@H](C)C(=O)N(C)[C@@H](C)CNC(=O)C[C@H](Cc2ccc(Cl)cc2)N(C)C1=O [Compound 230, (2S,5S,8S,13S,16R)-1-(2-chloro-6-(4-(2-((dimethylamino)methyl)-1-methyl-1H-imidazol-5-yl)phenoxy)benzyl)-8-(4-chlorobenzyl)-5-(methoxymethyl)-2,7,13,14,16-pentamethyl-1,4,7,11,14-pentaazacyclooctadecane-3,6,10,15,18-pentaone] | 46.03 | 77.8 |
| COC[C@@H]1NC(=O)[C@H](C)N(Cc2cccc(F)c2Oc2ccc(-c3cnc(CN(C)C)n3C)cc2)C(=O)C[C@@H](Cc2ccccc2)C(=O)N(C)[C@@H](C)CNC(=O)C[C@H](Cc2ccc(Cl)cc2)N(C)C1=O [Compound 232, (2S,5S,8S,13S,16R)-16-benzyl-8-(4-chlorobenzyl)-1-(2-(4-(2-((dimethylamino)methyl)-1-methyl-1H-imidazol-5-yl)phenoxy)-3-fluorobenzyl)-5-(methoxymethyl)-2,7,13,14-tetramethyl-1,4,7,11,14-pentaazacyclooctadecane-3,6,10,15,18-pentaone] | 96.17 | 5.7 |
| C[C@H]1CNC(=O)C[C@H](Cc2ccc(Cl)cc2)N(C)C(=O)[C@H](CCC(=O)O)NC(=O)[C@H](C)N(Cc2ccc(Cl)cc2Oc2ccc(-c3cnc(CN(C)C)n3C)cc2)C(=O)C[C@@H](Cc2ccccc2)C(=O)N1C [Compound 233, 3-((2S,5S,8S,13S,16R)-16-benzyl-1-(4-chloro-2-(4-(2-((dimethylamino)methyl)-1-methyl-1H-imidazol-5-yl)phenoxy)benzyl)-8-(4-chlorobenzyl)-2,7,13,14-tetramethyl-3,6,10,15,18-pentaoxo-1,4,7,11,14-pentaazacyclooctadecan-5-yl)propanoic acid] | 90.08 | 705 |
